Experimental data reported in patent US20090247519A1, “AMINO-ETHYL-AMINO-ARYL (AEAA) COMPOUNDS AND THEIR USE” (priority 2006, published 2009).
pIC50: −log10 of the molar value.

Target: T1, Human full length PKD1 (Homo sapiens, UniProt Q15139)
T1 construct: Human full length PKD1 at ˜100 μg/mL purchased from Upstate Ltd; purchased Upstate Ltd 14-508
T1 sequence (Q15139 1-912): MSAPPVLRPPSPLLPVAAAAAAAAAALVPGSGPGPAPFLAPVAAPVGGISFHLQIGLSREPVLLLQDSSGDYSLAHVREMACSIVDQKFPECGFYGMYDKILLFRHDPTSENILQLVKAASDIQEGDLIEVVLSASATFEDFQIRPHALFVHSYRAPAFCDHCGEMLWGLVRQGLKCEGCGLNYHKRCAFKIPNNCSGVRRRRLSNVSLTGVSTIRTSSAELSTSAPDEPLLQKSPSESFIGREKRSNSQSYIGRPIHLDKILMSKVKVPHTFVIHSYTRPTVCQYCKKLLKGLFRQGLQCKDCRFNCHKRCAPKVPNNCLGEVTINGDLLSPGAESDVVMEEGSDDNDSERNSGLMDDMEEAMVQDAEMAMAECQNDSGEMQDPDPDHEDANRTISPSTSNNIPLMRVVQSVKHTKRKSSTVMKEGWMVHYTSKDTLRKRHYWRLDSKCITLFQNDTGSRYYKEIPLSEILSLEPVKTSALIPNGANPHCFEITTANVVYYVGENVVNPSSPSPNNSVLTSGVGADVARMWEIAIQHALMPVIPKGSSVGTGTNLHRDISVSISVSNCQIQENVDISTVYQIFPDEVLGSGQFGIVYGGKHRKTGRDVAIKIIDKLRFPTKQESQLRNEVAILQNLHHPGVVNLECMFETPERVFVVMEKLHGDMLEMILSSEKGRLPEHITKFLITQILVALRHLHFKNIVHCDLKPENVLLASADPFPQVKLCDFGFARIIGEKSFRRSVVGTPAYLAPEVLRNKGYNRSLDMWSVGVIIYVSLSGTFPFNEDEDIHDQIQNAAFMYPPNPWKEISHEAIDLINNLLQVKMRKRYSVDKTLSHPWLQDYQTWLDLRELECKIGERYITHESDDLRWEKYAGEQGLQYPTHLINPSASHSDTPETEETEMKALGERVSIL
Assay: PKD1 (Human Full Length) Enzyme Activity Assay (IMAP fluorescence polarisation)
Format: biochemical
Conditions: 10 μM ATP, 10 point dose-response
Protocol: PKD1 (Human Full Length) Enzyme Activity Assay
Kinase Assay Reaction Buffer: This consisted of 0.22 μM filtered 25 mM HEPES and 2 mM MgCl2 pH 7.5.
Kinase Enzyme Human full length PKD1 at ˜100 μg/mL purchased from Upstate Ltd (Product code 14-508) was obtained from aliquots stored at −70° C. It was prepared with a final concentration of 0.3 μg/mL by diluting 1:300 in Reaction Buffer (30 μL per 9 mL-5 mL per plate with an additional 4 mL dead volume) and vortexing prior to use.
Substrate: Fluorescein labelled glycogen synthase-derived peptide (FI)-KKLNRTLSVA (also known as MAPKAP K2 substrate) was obtained from Molecular Devices (Product code R7127). […]
The fluorescence polarisation of the substrate in each well was recorded using an analyst microplate reader (Molecular Devices) with a single read at Ex485 Em535 (Analyst settings: Z Height 5 mm, G Factor 0.95, Reads/well 1, Integration 100000 μs, Gain Sensitivity 2).
Percentage inhibition was calculated based on activity of the test sample minus the average values in the blank wells relative to the average values measured in control wells minus the average values in the blank wells.
IC50 values were calculated from 10 point dose sigmoid ‘dose-response’ curves using XIfit software (IDBS inc, USA). […]

CC[C@@H](N)CN(C)c1ccnc(-c2cc(Cl)ccc2O)n1 [XX-276, 2-{4-[((R)-2-Amino-butyl)-methyl-amino]-pyrimidin-2-yl}-4-chloro-phenol]
pIC50: 9.05
